According to the supplement of paper PMC11061612:

Experiments:
Test in all cases: combination Emax (second highest fraction inhibited in the dose matrix, 72 h); higher = more inhibition; extreme values may be limits of the assay
[1] = tested on: BFTC-905 (Bladder Carcinoma)
Procedure, shortened: (§1)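 Bliss excess equals the observed combination effect minus the expected value EA + EB − EA·EB, where EA and EB are the effects of each agent alone. Combination Emax is the second-highest inhibition within the matrix. Inhibition was scaled from CellTiter-Glo 2.0 luminescence, with 0 set by vehicle wells and 1 by blank wells, after 72 hours of two-drug dosing of cells plated in 1536-well plates.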

[2] = tested on: BL-41 (Burkitt's Lymphoma)
Procedure, shortened: as §1

[3] = tested on: CAMA-1 (Breast Carcinoma)
Procedure, shortened: as §1

CHP-212 (Neuroblastoma) = tested on: CHP-212 (Neuroblastoma)
Procedure, shortened: as §1

[4] = tested on: COLO-678 (Colorectal Carcinoma)
Procedure, shortened: as §1

[5] = tested on: DND-41 (T-Lymphoblastic Leukemia)
Procedure, shortened: as §1

[6] = tested on: EVSA-T (Breast Carcinoma)
Procedure, shortened: as §1

[7] = tested on: HDQ-P1 (Breast Carcinoma)
Procedure, shortened: as §1

[8] = tested on: K-562 (Chronic Myelogenous Leukemia)
Procedure, shortened: as §1

[9] = tested on: KCL-22 (Chronic Myelogenous Leukemia)
Procedure, shortened: as §1

[10] = tested on: KM12 (Colorectal Carcinoma)
Procedure, shortened: as §1

[11] = tested on: KYSE-180 (Esophageal Squamous Cell Carcinoma)
Procedure, shortened: as §1

[12] = tested on: MKN28 (Gastric Carcinoma)
Procedure, shortened: as §1

[13] = tested on: NCI-H1792 (Lung Adenocarcinoma)
Procedure, shortened: as §1

NCI-H2818 (Mesothelioma) = tested on: NCI-H2818 (Mesothelioma)
Procedure, shortened: as §1

[14] = tested on: PANC-08-13 (Pancreatic Carcinoma)
Procedure, shortened: as §1

U251 (Low Grade Glioma) = tested on: U251 (Low Grade Glioma)
Procedure, shortened: as §1

WIL2-NS (Non-Cancerous) = tested on: WIL2-NS (Non-Cancerous)
Procedure, shortened: as §1

WM-115 (Melanoma) = tested on: WM-115 (Melanoma)
Procedure, shortened: as §1

Compound | combination Emax [1] | combination Emax [2] | combination Emax [3] | combination Emax (CHP-212 (Neuroblastoma)) | combination Emax [4] | combination Emax [5] | combination Emax [6] | combination Emax [7] | combination Emax [8] | combination Emax [9] | combination Emax [10] | combination Emax [11] | combination Emax [12] | combination Emax [13] | combination Emax (NCI-H2818 (Mesothelioma)) | combination Emax [14] | combination Emax (U251 (Low Grade Glioma)) | combination Emax (WIL2-NS (Non-Cancerous)) | combination Emax (WM-115 (Melanoma))
CCN(CCO)CCCOc1ccc2c(Nc3cc(CC(=O)Nc4cccc(F)c4)[nH]n3)ncnc2c1 [AZD2811] + C[C@@H]1COCCN1C2=NC(=NC(=C2)C3(CC3)[S@](=N)(=O)C)C4=C5C=CNC5=NC=C4 [AZD6738] (first compound max 1 µM, 7x7, partner max 10 µM) | 0.838 | 1 | 0.304 | 0.791 | 0.165 | 0.908 | 0.289 | 0.391 | 0.881 | 0.986 | 0.612 | 0.823 | 0.519 | 0.655 | 0.405 | 0.36 | 0.533 | 0.979 | 0.523
Cc1cc2ncnn2cc1Nc1ncc2c(n1)n(C1CCOCC1)c(=O)n2C [AZD7648] + CN(C)CCCOc1ccc(-c2ccc3ncc4c(c3c2)n(C2CCOCC2)c(=O)n4C)cn1 [AZD0156] (first compound max 10 µM, 7x7, partner max 1 µM) | 0.221 | 0.269 | 0.261 | 0.288 | 0.0911 | 0.242 | 0.28 | 0.403 | 0.2 | 0.332 | 0.241 | 0.168 | 0.287 | 0.469 | 0.368 | 0.223 | 0.196 | 0.395 | 0.328
CN(C)CCCOc1ccc(-c2ccc3ncc4c(c3c2)n(C2CCOCC2)c(=O)n4C)cn1 [AZD0156] + C[C@@H]1COCCN1C2=NC(=NC(=C2)C3(CC3)[S@](=N)(=O)C)C4=C5C=CNC5=NC=C4 [AZD6738] (first compound max 1 µM, 7x7, partner max 10 µM) | 0.891 | 1 | 0.273 | 0.839 | 0.123 | 0.844 | 0.495 | 0.381 | 0.9 | 0.978 | 0.696 | 0.915 | 0.471 | 0.707 | 0.324 | 0.373 | 0.584 | 0.988 | 0.488
Cc1cc2ncnn2cc1Nc1ncc2c(n1)n(C1CCOCC1)c(=O)n2C [AZD7648] + CCN(CCO)CCCOc1ccc2c(Nc3cc(CC(=O)Nc4cccc(F)c4)[nH]n3)ncnc2c1 [AZD2811] (first compound max 10 µM, 7x7, partner max 1 µM) | 0.54 | 0.747 | 0.28 | 0.693 | 0.152 | 0.236 | 0.327 | 0.423 | 0.202 | 0.485 | 0.261 | 0.207 | 0.309 | 0.553 | 0.434 | 0.254 | 0.233 | 0.215 | 0.42
C=CCn1c(=O)c2cnc(Nc3ccc(N4CCN(C)CC4)cc3)nc2n1-c1cccc(C(C)(C)O)n1 [AZD1775] + C[C@@H]1COCCN1C2=NC(=NC(=C2)C3(CC3)[S@](=N)(=O)C)C4=C5C=CNC5=NC=C4 [AZD6738] (first compound max 1 µM, partner max 10 µM) | 0.964 | 1 | 0.46 | 0.823 | 0.199 | 0.929 | 0.483 | 0.76 | 0.934 | 1 | 0.852 | 0.939 | 0.695 | 0.866 | 0.475 | 0.373 | 0.773 | 1 | 0.595
C=CCn1c(=O)c2cnc(Nc3ccc(N4CCN(C)CC4)cc3)nc2n1-c1cccc(C(C)(C)O)n1 [AZD1775] + O=C(c1cc(Cc2n[nH]c(=O)c3ccccc23)ccc1F)N1CCN(C(=O)C2CC2)CC1 [Olaparib] (first compound max 1 µM, partner max 10 µM) | 0.55 | 1 | 0.149 | 0.831 | 0.205 | 0.878 | 0.289 | 0.517 | 0.845 | 0.882 | 0.748 | 0.774 | 0.573 | 0.707 | 0.415 | 0.329 | 0.442 | 0.931 | 0.259
CCc1c2c(nc3ccc(O)cc13)-c1cc3c(c(=O)n1C2)COC(=O)[C@]3(O)CC [SN-38] + O=C(c1cc(Cc2n[nH]c(=O)c3ccccc23)ccc1F)N1CCN(C(=O)C2CC2)CC1 [Olaparib] (first compound max 0.3 µM, 7x7, partner max 10 µM) | 0.974 | 1 | 0.299 | – | 0.396 | 0.947 | 0.784 | 0.702 | 0.672 | 0.887 | 0.681 | 0.527 | 0.553 | 0.575 | 0.359 | 0.297 | – | 1 | 0.391
